How the values were obtained:
secreted APP = assay: ELISA for secreted APP in SHSY5Y cells; type: cell-based, human; conditions: 16 hours
Procedure: (§1) An enzyme-linked immunosorbent assay was developed to detect secreted APP in SHSY5Y cells, a human neuroblastoma cell line. The purpose of the screen was to discover small molecules that inhibit APP protein synthesis in SHSY5Y cells. SHSY5Y cells were plated at 1×10^5 cells/well in […] of DMEM containing 0.5% heat inactivated FBS in 96 well tissue culture treated plates (Falcon no. 35 3072). 144 MES compounds were tested at final concentrations of […] in 0.1% DMSO. Compounds were added and the plates incubated for 16 hours at 37° C./5% CO2. Maxisorp plates (Nunc no. 437958) were coated overnight with […] capture antibody (Biosource 44-100) diluted in Ca^++ and Mg^++ free PBS. Biosource 44-100 is a mouse mAb that recognizes aa 1-100 of human APP. Plates were blocked for 30 minutes with 1 mg/mL BSA in Ca^++ and Mg^++ free PBS. Plates were washed 3× with wash buffer (Ca^++ and Mg^++ free PBS+0.01% Tween20). […] of supernatants and non-cultured medium controls were transferred from culture plates to ELISA plates. Culture plates were reserved for toxicity analysis. Supernatants were incubated for 4 hours at RT on a plate shaker. After supernatant incubation, plates were washed 3×. Primary antibody (Signet Clone 6E-10 biotin) was added at 0.3125 mg/mL and incubated overnight at 4° C. The recognition site of 6E-10 is aa 1-17 of Ab. For detection, a 1:3000 dilution of horseradish peroxidase conjugated streptavidin (Endogen no. N-100) was incubated for 30 minutes. Plates were washed 3×. Enzyme activity was assessed by incubation with […] TMB substrate solution (Moss no. TMB-US) for 20 minutes. The reaction was stopped by the addition of […] 0.18M sulfuric acid. Optical density was read at 450 nm on Wallac Victor2 plate reader. During the first incubation, toxicity was determined using MTS assay, Cell Titer96 AQ reagent (Promega no. G5430). The background values from the non-cultured medium control were subtracted from the sample values and secreted APP levels and toxicity were expressed as % vehicle control. Of the 144 MES compounds screened, 12 inhibited secreted APP as determined by ELISA. The results are depicted in FIGS. 13A-M.
(§2) Using the experimental procedure outlined above, APP secretion and toxicity studies were performed on several other non-carbamate compounds, and the results are shown in Tables 3 and 4. The compound structures are provided in Table 2 in the application, which are identified by their MES number.

SH-SY-5Y Cells = assay: MTS toxicity assay in SHSY5Y cells; type: cell-based, human
Procedure: as §1, §2

| Compound | APP Secretion by SH-SY-5Y Cells (secreted APP; Dose 2 uM) [% vehicle control] | APP Secretion by SH-SY-5Y Cells (secreted APP; Dose 6 uM) [% vehicle control] | APP Secretion by SH-SY-5Y Cells (secreted APP; Dose 20 uM) [% vehicle control] | APP Toxicity SH-SY-5Y Cells (MTS assay) (SH-SY-5Y Cells; Dose 2 uM) [% vehicle control] | APP Toxicity SH-SY-5Y Cells (MTS assay) (SH-SY-5Y Cells; Dose 6 uM) [% vehicle control] | APP Toxicity SH-SY-5Y Cells (MTS assay) (SH-SY-5Y Cells; Dose 20 uM) [% vehicle control] | APP Secretion by SH-SY-5Y Cells (secreted APP; Dose 2 uM, listed as 9231) [% vehicle control] | APP Secretion by SH-SY-5Y Cells (secreted APP; Dose 6 uM, listed as 9231) [% vehicle control] | APP Secretion by SH-SY-5Y Cells (secreted APP; Dose 20 uM, listed as 9231) [% vehicle control] | APP Toxicity SH-SY-5Y Cells (MTS assay) (SH-SY-5Y Cells; Dose 2 uM, listed as 9231) [% vehicle control] | APP Toxicity SH-SY-5Y Cells (MTS assay) (SH-SY-5Y Cells; Dose 6 uM, listed as 9231) [% vehicle control] | APP Toxicity SH-SY-5Y Cells (MTS assay) (SH-SY-5Y Cells; Dose 20 uM, listed as 9231) [% vehicle control] | APP Secretion by SH-SY-5Y Cells (secreted APP; Dose 0.08 uM) [% vehicle control] | APP Secretion by SH-SY-5Y Cells (secreted APP; Dose 0.25 uM) [% vehicle control] | APP Secretion by SH-SY-5Y Cells (secreted APP; Dose 0.74 uM) [% vehicle control] | APP Toxicity SH-SY-5Y Cells (MTS assay) (SH-SY-5Y Cells; Dose 0.08 uM) [% vehicle control] | APP Toxicity SH-SY-5Y Cells (MTS assay) (SH-SY-5Y Cells; Dose 0.25 uM) [% vehicle control] | APP Toxicity SH-SY-5Y Cells (MTS assay) (SH-SY-5Y Cells; Dose 0.74 uM) [% vehicle control] |
| --- | --- | --- | --- | --- | --- | --- | --- | --- | --- | --- | --- | --- | --- | --- | --- | --- | --- | --- |
| CN1CC[C@]2(C)c3cc(O)ccc3N(Cc3ccccc3)C12 (stereo partly drawn) [MES 9215] | 94.55 | 108.1 | 6.2 | 92.3 | 78.6 | 12.9 | – | – | – | – | – | – | – | – | – | – | – | – |
| CN(C)Cc1cc2c(cc1O)[C@]1(C)CCN(C)C1N2C (stereo partly drawn) [MES 9266] | 94.4 | 95.2 | 94.85 | 96.55 | 97.75 | 94.15 | – | – | – | – | – | – | – | – | – | – | – | – |
| COc1ccc2c(c1)[C@]1(C)CCN(C)C1N2Cc1ccccc1 (single isomer, unassigned) [MES 9202] | 94.4 | 107.55 | 110.05 | 99.15 | 97.85 | 90.25 | – | – | – | – | – | – | – | – | – | – | – | – |
| COc1ccc2[nH]cc(CCN)c2c1.Cl [MES 9321] | 97.95 | 98.1 | 100.5 | 99.9 | 101.15 | 99.45 | – | – | – | – | – | – | – | – | – | – | – | – |
| COc1ccc2c(c1)[C@]1(C)CCN(Cc3ccccc3)C1N2C (stereo partly drawn) [MES 9231] | – | – | – | – | – | – | 104.9 | 133.5 | 154.2 | 95.7 | 90.73 | 85.87 | – | – | – | – | – | – |
| Br.CC1=C(c2ccc(O)cc2)CN2CCC[C@H]2C1.O [MES 9330] | 99.6 | 101.5 | 110.65 | 99.05 | 98.45 | 97.95 | – | – | – | – | – | – | – | – | – | – | – | – |
| COc1ccc2c(c1)[C@@](C)(CC[N+](C)(C)C)C(O)N2Cc1ccccc1.[I-] (stereo partly drawn) [MES 9236] | 105.8 | 103.2 | 101.65 | 97.6 | 101 | 100.05 | – | – | – | – | – | – | – | – | – | – | – | – |
| COc1ccc2c(c1)[C@@](C)(CC#N)C(=O)N2C [MES 9227] | 101.15 | 99.45 | 120.5 | 103.7 | 99.27 | 96.07 | – | – | – | – | – | – | – | – | – | – | – | – |
| CN1CC[C@@]2(C)c3cc(O)ccc3N(C)C2NC1=O (single isomer, unassigned; (-)) [MES 9205] | 96.73 | 96.9 | 22.17 | 97.9 | 97.73 | 33.33 | – | – | – | – | – | – | 115.1 | 107.4 | 114.7 | 108.7 | 105.8 | 105.6 |
